For orientation: Kd means the free concentration of one partner at which half of the binding sites on the other are occupied at equilibrium, for simple one-to-one binding. Lower therefore signals higher affinity. One may read the Ki as a dissociation constant, usually derived from enzyme kinetics or from competition with a known ligand. A high value points to lower affinity.

The source of these data is ChEMBL document CHEMBL1140063, “Synthesis and biological evaluation of 2-amino-3-(4-chlorobenzoyl)-4-[N-(substituted) piperazin-1-yl]thiophenes as potent allosteric enhancers of the A1 adenosine receptor” (J Med Chem, 2008).

Assay [1] concerns the target T1, Adenosine receptor A1 (Homo sapiens, UniProt P30542).
T1 sequence (P30542 whole entry): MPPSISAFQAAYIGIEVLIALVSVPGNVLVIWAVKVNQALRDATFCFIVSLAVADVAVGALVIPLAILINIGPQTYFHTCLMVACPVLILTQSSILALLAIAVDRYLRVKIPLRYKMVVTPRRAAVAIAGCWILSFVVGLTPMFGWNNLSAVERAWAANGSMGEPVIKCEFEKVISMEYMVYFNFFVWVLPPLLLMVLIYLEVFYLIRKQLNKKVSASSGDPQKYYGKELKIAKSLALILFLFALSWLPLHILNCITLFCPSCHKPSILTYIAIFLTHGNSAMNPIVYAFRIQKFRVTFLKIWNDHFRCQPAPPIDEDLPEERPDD
In words: Displacement of [3H]CCPA from human adenosine A1 receptor expressed in CHO cells. It counts as cell-based. (In general: Displacement assays read how much labelled ligand stays bound in the presence of the test substance.)

In assay [2] the target is Adenosine receptor A2a (Homo sapiens) (UniProt P29274). The assay can be described thus: Displacement of [3H]ZM241385 from human adenosine A2A receptor expressed in CHO cells at 10 uM. It counts as cell-based.
Assay [3] addresses T2, Adenosine receptor A1 (Homo sapiens) (UniProt P30542).
T2 sequence (whole entry): T1 sequence (P30542 whole entry)
The assay can be described thus: Displacement of [3H]DPCPX from human adenosine A1 receptor expressed in CHO cells relative to untreated control. It counts as cell-based.

Assay [4] deals with T1, Adenosine receptor A1. The assay can be described thus: Displacement of [3H]DPCPX from human adenosine A1 receptor expressed in CHO cells. It counts as cell-based.
Assay [5] concerns the target T2, Adenosine receptor A1 (Homo sapiens). In words: Displacement of [3H]CCPA from human adenosine A1 receptor expressed in CHO cells assessed for per milligram of protein. It counts as cell-based.
For assay [6], the target named is T3, Adenosine receptor A3 (Homo sapiens) (UniProt P0DMS8).
T3 sequence (whole entry): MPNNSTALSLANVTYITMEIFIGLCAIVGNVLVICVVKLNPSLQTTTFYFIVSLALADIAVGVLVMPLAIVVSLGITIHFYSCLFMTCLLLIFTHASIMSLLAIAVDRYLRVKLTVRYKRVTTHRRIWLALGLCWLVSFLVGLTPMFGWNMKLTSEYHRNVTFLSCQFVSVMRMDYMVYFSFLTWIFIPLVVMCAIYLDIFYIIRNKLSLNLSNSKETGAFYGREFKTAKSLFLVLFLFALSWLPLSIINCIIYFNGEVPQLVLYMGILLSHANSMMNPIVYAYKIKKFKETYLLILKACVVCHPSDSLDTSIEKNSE
The assay can be described thus: Displacement of [3H]MRE3008F20 from human adenosine A3 receptor expressed in CHO cells at 10 uM. In kind it is cell-based.

Assay [7] concerns the target T2, Adenosine receptor A1 (Homo sapiens). The assay can be described thus: Displacement of [3H]DPCPX from human adenosine A1 receptor expressed in CHO cells assessed for per milligram of protein. In kind it is cell-based.
Assay [8] has the same target. In words: Displacement of [3H]CCPA from human adenosine A1 receptor expressed in CHO cells relative to untreated control. It counts as cell-based.
The target is the same in assay [9]. In words: Activity at human recombinant adenosine A1 receptor expressed in CHO cells assessed as cAMP level at 1 uM. In kind it is functional, cell-based. (cAMP levels reflect the balance of adenylyl cyclase and phosphodiesterase activity.)
For assay [10] the target is unchanged. The assay can be described thus: Activity at human recombinant adenosine A1 receptor expressed in CHO cells assessed as cAMP level at 10 uM. In kind it is functional, cell-based.
The target is the same in assay [11]. The assay can be described thus: Activity at human recombinant adenosine A1 receptor expressed in CHO cells assessed as of cAMP level at 0.1 uM. In kind it is functional, cell-based.
Assay [12] shares this target. In words: Displacement of [3H]DPCPX from human adenosine A1 receptor expressed in CHO cells at 10 uM. It counts as cell-based.
The target is the same in assay [13]. In words: Activity at human recombinant adenosine A1 receptor expressed in CHO cells assessed as cAMP level at 0.01 uM. In kind it is functional, cell-based.
The target is the same in assay [14]. The assay can be described thus: Displacement of [3H]DPCPX from human adenosine A1 receptor expressed in CHO cells at 100 uM. It counts as cell-based.
In assay [15] the target is T4, Adenosine receptor A1 (Rattus norvegicus, UniProt P25099).
T4 sequence (P25099 whole entry): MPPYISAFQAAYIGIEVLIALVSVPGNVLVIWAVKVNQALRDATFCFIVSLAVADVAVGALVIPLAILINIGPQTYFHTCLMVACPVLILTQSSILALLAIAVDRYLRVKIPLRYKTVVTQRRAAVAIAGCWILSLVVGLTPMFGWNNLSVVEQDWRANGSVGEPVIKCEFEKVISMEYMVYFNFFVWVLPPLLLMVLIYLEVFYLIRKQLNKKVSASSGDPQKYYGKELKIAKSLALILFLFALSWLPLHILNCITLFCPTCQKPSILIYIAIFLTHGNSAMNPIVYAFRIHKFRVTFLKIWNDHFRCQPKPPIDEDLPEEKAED
The assay can be described thus: Displacement of [3H]DPCPX from adenosine A1 receptor in rat membranes. In kind it is cell membranes.

Chain of Adenosine receptor A2a (Homo sapiens) (P29274 whole entry): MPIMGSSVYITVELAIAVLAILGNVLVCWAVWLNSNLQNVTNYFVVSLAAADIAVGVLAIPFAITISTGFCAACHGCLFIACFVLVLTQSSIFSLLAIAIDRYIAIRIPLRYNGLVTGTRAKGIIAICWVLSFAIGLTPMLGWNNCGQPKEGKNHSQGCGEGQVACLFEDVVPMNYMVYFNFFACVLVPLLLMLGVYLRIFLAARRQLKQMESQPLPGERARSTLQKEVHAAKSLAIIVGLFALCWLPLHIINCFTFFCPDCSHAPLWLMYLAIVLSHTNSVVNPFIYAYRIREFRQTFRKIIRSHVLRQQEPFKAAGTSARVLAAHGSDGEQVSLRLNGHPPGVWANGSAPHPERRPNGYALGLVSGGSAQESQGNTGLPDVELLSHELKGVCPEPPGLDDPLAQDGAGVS

For `CN1CCN(Cc2csc(N)c2C(=O)c2ccc(Cl)cc2)CC1`, the Kd at Adenosine receptor A1 [1] is 1.2 nM; on Adenosine receptor A1 [4] it was 1.7 nM. The Activity is 0% in [2]; 0.9 in [3]; 0% in assay [6]; 1.1 in assay [8]; 1% in [9]; 16% in assay [10]. In addition, the Activity in assay [11], in [12] and in [13] was 3% throughout. In addition, the values for the Bmax in [5] and in assay [7] were 570 fmol and 2990 fmol, respectively.

Take `Nc1scc(CN2CCN(c3ncccn3)CC2)c1C(=O)c1ccc(Cl)cc1`: the Kd on Adenosine receptor A1 [1] was 1.1 nM; on Adenosine receptor A1 [4] it was 1.7 nM. Moreover, the Activity in [2] amounted to 0%; in assay [3], 1; in [6], 0%; in assay [8], 2.8; in assay [9], 25%; in assay [10] it was 69%. The figures for the Activity in assay [11], in assay [12] and in [13] were 3%, 0% and 9%, respectively. In addition, the Bmax came to 1450 fmol in assay [5] and 3320 fmol in assay [7].

For `Nc1scc(CN2CCN(c3ccc4c(c3)OCO4)CC2)c1C(=O)c1ccc(Cl)cc1`, the Kd at Adenosine receptor A1 [1] turned out to be 1.1 nM; at Adenosine receptor A1 [4] it was 1.9 nM. The Activity in [2] turned out to be 0%; in [3] it was 0.9; in [6], 0%; in [8] it was 1.4; in [9], 23%; in assay [10] it was 34%. Further, the Activity came out at 13% in assay [11], 0% in [12] and 15% in assay [13]. Also, the Bmax in assay [5] was determined as 725 fmol; in [7], 3190 fmol.

In the case of `Nc1scc(CN2CCN(c3ccccn3)CC2)c1C(=O)c1ccc(Cl)cc1`, the Kd at Adenosine receptor A1 [1] is 1.2 nM; on Adenosine receptor A1 [4] it was 1.7 nM. In addition, the Activity in assay [2] was 4%; in assay [3], 0.9; in assay [6], 0%; in [8], 3.5; in assay [9], 46%; in assay [10] it was 69%. The Activity in [11] amounted to 5%; in assay [12], 0%; in assay [13] it was 9%. In addition, the results for the Bmax in [5] and in [7] were 1810 fmol and 3090 fmol, respectively.

As for `Nc1scc(CN2CCN(Cc3ccccc3)CC2)c1C(=O)c1ccc(Cl)cc1`, the Kd at Adenosine receptor A1 [1] turned out to be 1.1 nM; at Adenosine receptor A1 [4], 1.7 nM. Also, the Activity in [2] was 0%; in assay [3], 1; in assay [6] it was 0%; in assay [8], 6.1; in assay [9], 30%; in [10], 78%. Besides, the Activity came to 4% in [11], 0% in [12] and 3% in assay [13]. Also, the values for the Bmax in [5] and in assay [7] were 3160 fmol and 3420 fmol, respectively.

In the case of `Nc1scc(CN2CCN(c3ccc(F)cc3)CC2)c1C(=O)c1ccc(Cl)cc1`, the values for the Kd at Adenosine receptor A1 [1] and on Adenosine receptor A1 [4] were 1 nM and 1.8 nM, respectively. Also, the Activity in [2] is 0%; in [3], 1.1; in assay [6] it was 17%; in assay [8] it was 6.7; in [9], 63%; in assay [10], 77%. The Activity turned out to be 19% in assay [11], 0% in assay [12] and 3% in [13]. Also, the Bmax came out at 3470 fmol in [5] and 3560 fmol in assay [7].

For `Nc1scc(CN2CCN(C3CCCCC3)CC2)c1C(=O)c1ccc(Cl)cc1`, the Kd at Adenosine receptor A1 [1] came out at 1.1 nM; at Adenosine receptor A1 [4] it was 1.9 nM. For the same molecule, the Activity in assay [2] is 0%; in assay [3], 0.9; in assay [6], 5%; in [8] it was 1.2; in [9] it was 13%; in assay [10], 52%. Further, the Activity was determined as 3% in assay [11], 0% in [12] and 5% in assay [13]. The values for the Bmax in assay [5] and in assay [7] were 622 fmol and 3200 fmol, respectively.

For `Nc1scc(CN2CCN(c3ccc(Cl)cc3)CC2)c1C(=O)c1ccc(Cl)cc1`, the dissociation constant Kd turned out to be 1.1 nM on Adenosine receptor A1 [1] and 1.8 nM at Adenosine receptor A1 [4]. In addition, the Activity stood at 3% in [2]; 1.1 in assay [3]; 6% in assay [6]; 7 in assay [8]; 65% in assay [9]; 78% in assay [10]. Besides, the Activity in assay [11] is 48%; in assay [12], 0%; in assay [13] it was 10%. The results for the Bmax in [5] and in assay [7] were 3630 fmol and 3650 fmol, respectively.

As to `N#Cc1ccc(N2CCN(Cc3csc(N)c3C(=O)c3ccc(Cl)cc3)CC2)cc1`, the Kd amounted to 1.1 nM on Adenosine receptor A1 [1] and 1.8 nM on Adenosine receptor A1 [4]. Also, the Activity came to 0% in assay [2]; 1 in assay [3]; 20% in assay [6]; 4.8 in assay [8]; 54% in [9]; 72% in [10]. The Activity in assay [11] was 8%; in [12], 0%; in [13], 12%. Also, the results for the Bmax in [5] and in assay [7] were 2490 fmol and 3260 fmol, respectively.

With `Nc1scc(CN2CCN(c3ccccc3)CC2)c1C(=O)c1ccc(Cl)cc1`, the Kd on Adenosine receptor A1 [1] came out at 1 nM; on Adenosine receptor A1 [4], 1.9 nM. Also, the Activity turned out to be 0% in assay [2]; 1 in [3]; 0% in assay [6]; 6.5 in [8]; 62% in assay [9]; 78% in assay [10]. Moreover, the figures for the Activity in assay [11], in assay [12] and in [13] were 26%, 0% and 4%, respectively. In addition, the Bmax in assay [5] was determined as 3370 fmol; in assay [7], 3520 fmol.

For the molecule `Cc1sc(N)c(C(=O)c2cccc(C(F)(F)F)c2)c1C`, the Activity stood at 0% in assay [2]; 42% in assay [14]; 21% in [6]; 1.3 in assay [8]; 31% in assay [9]; 57% in [10]. The Activity in assay [11] is 3%; in assay [12], 0%; in [13], 8%. Also, the Bmax came out at 673 fmol in [5] and 3340 fmol in assay [7]. The molecule further displayed a Ki at Adenosine receptor A1 [15] of 11000 nM.

With `Nc1scc(CN2CCN(c3ccc(C(F)(F)F)cc3)CC2)c1C(=O)c1ccc(Cl)cc1`, the figures for the Kd at Adenosine receptor A1 [1] and at Adenosine receptor A1 [4] were 1 nM and 1.9 nM, respectively. The Activity in assay [2] was determined as 0%; in assay [3], 1.1; in assay [6] it was 15%; in [8] it was 7.7; in assay [9] it was 84%; in [10] it was 87%. In addition, the results for the Activity in [11], in [12] and in assay [13] were 53%, 0% and 10%, respectively. Also, the Bmax in assay [5] turned out to be 3990 fmol; in assay [7] it was 3680 fmol.

With `Cc1ccc(N2CCN(Cc3csc(N)c3C(=O)c3ccc(Cl)cc3)CC2)cc1`, the Kd worked out at 1 nM at Adenosine receptor A1 [1] and 1.7 nM on Adenosine receptor A1 [4]. Moreover, the Activity is 0% in assay [2]; 0.9 in assay [3]; 0% in assay [6]; 3.9 in assay [8]; 22% in [9]; 66% in [10]. Further, the values for the Activity in assay [11], in assay [12] and in assay [13] were 3%, 0% and 10%, respectively. The results for the Bmax in [5] and in assay [7] were 2020 fmol and 3060 fmol, respectively.
